Assay results as given in US11866394B2, “Prodrugs of hydroxamate-based GCPII inhibitors” (The Johns Hopkins University, priority 2016, dated 2024).
“Also recorded” adds a separate entry of the source. Like-named read-outs stand apart in the source and are kept apart here.

Columns and labels:
[1] = In vitro plasma metabolite identification studies; format: in vitro ADME; conditions: 10 μM, 37° C., 60 min incubation
Description: Plasma stability studies were conducted in mouse plasma as previously described. (Majer, et al., 2016) Compound 1 and prodrugs (12, 23 and 30) (10 μM) were spiked in plasma and incubated in an orbital shaker at 37° C. At zero and 60 min post incubation, 100 μL aliquots of the mixture in triplicate were removed and the reaction quenched by addition of two times the volume of ice cold acetonitrile spiked with the internal standard (losartan 5 μM). The samples were vortexed for 30 s and centrifuged at 12000 g for 10 min. Supernatant (50 μL) was diluted with 50 μL water and transferred to a 250 μL polypropylene vial sealed with a Teflon cap. Prodrug disappearance and metabolite identification were analyzed over time using an Agilent 1260 HPLC coupled to a ESITOF Agilent 6530 with Agilent Jet Stream Technology (Agilent Technologies, Santa Clara, CA). Samples were separated on a Waters 1.7 μm, C18, 100×2.1 column at a flow rate 0.3 mL/min. […] The mass spectrometry instrument was operated in a negative or positive (for JV-2946) ion mode with a voltage of +3.00 kV applied to the capillary. The temperature, the flow rate of the nitrogen drying gas, the pressure of the nitrogen nebulizing gas, the temperature, and the flow rate of the sheath gas were set at 325° C., 10 L/min, 40 psi, 390° C., and 11/min, respectively.

[2] = cited from earlier work; for oral bioavailability: background statement
[3] = system: rat chronic constriction injury (CCI) model of neuropathic pain; conditions: cited from earlier work
[4] = target: rhGCPII (Homo sapiens, UniProt Q04609); experiment: GCPII inhibition, radioenzymatic assay with 3H-NAAG; format: biochemical; conditions: for IC50: rhGCPII, 3H-NAAG, pH 8.0, read-out: IC50, inhibition potency against GCPII
Description: Inhibition constants of prodrugs were determined using the radioenzymatic assay with 3HNAAG (radiolabeled at the terminal glutamate) as has been previously described (Novakova, et al., J. Med. Chem, 2016). Briefly, rhGCPII (30 ng/mL) was preincubated in the presence of inhibitors at varying concentrations, in 20 mM Tris, 150 mM NaCl, pH 8.0, for 15 min at 37° C. in the total volume of 80 μL. The reaction was initiated by the addition of 40 μL of the mixture of 0.31 μM NAAG (Sigma) and 15 nM 3H-NAAG (50 Ci/mmol in Tris buffer, PerkinElmer) to the total reaction volume of 120 μL. Following 20 min incubation, the reaction was terminated by addition of 120 μL of potassium phosphate (200 Mm), EDTA (50 Mm) and β-mercaptoethanol (2Mm), pH 7.4. The released glutamate was separated by ion-exchange chromatography and quantified by liquid scintillation counting. GraphPad Prism software (GraphPad Software, San Diego, CA, USA), was used for data fitting and IC50 values were calculated from the inhibition curves where applicable.

[5] = system: rat chronic constriction injury (CCI) model of neuropathic pain; experiment: Chronic constrictive injury (CCI) model of neuropathic pain, thermal hyperalgesia; format: in vivo
From the text: All experimental protocols were approved by the Institutional Animal Care and Use Committee at Johns Hopkins University (Baltimore, MD) and adhered to all of the applicable institutional and governmental guidelines for the humane treatment of laboratory animals. Male Sprague-Dawley rats (200-250 g; n=10-15 per group) were subjected to peripheral neuropathy injury by constriction of the sciatic nerve performed according to methods described previously. (Novakova, et al., 2016; Bennett, et al., 1988; Attal, et al., 1990) In brief, the common sciatic nerve was exposed and 4 ligatures (4.0 chromic gut) tied loosely around it with 1 mm spacing. Wound clips were used to close wounds and animals were returned to home cages for recovery. Hyperalgesia testing was initiated 10 days post-surgery. Pain sensitivity was assessed by determining withdrawal latencies in response to a constant thermal stimulus directed to the plantar surface of the hind paw using a Basile Plantar apparatus (Ugo Basile, Vaarese, Italy) according to the method described by Hargreaves et al. (Hargreaves, et al., 1988) Apparatus was calibrated so that normal rats respond to the stimulus within 15 sec of application. Withdrawal latency (i.e., the time taken for the rat to withdraw its paw from the heat source) was measured to the nearest 0.1 sec. The “difference in score” was calculated by subtracting the average latency of the paw on the non-ligated versus ligated side. Each animal was tested during two experimental sessions per week, with three days allowed to elapse between test sessions. Test agents, prodrug 12 (3 mg/kg equivalent of 1), or gabapentin (50 mg/kg and 100 mg/kg po) as a positive control were dosed daily throughout the study via oral gavage and one hour before testing on experimental days. Statistical analysis with students t-test was used to determine differences between control and treatment group.

[6] = In vitro metabolic stability in human plasma; format: in vitro ADME; conditions: 37° C.
Description: (§1) For metabolic stability, plasma (mouse, and human) and liver microsomes (mouse and human) were used. For stability, prodrugs (10 μM) were spiked in each matrix and incubated in an orbital shaker at 37° C. At predetermined times (0, 30 and 60 min), 100 μL aliquots of the mixture in triplicate were removed and the reaction quenched by addition of three times the volume of ice cold acetonitrile spiked with the internal standard (losartan 5 μM). The samples were vortexed for 30 s and centrifuged 12000 g for 10 min. 50 μL supernatant diluted with 50 μL water was transferred to a 250 μL polypropylene vial sealed with a Teflon cap. Prodrug disappearance was monitored over time using a liquid chromatography and tandem mass spectrometry (LC/MS/MS) method as described below.
(§2) For LC/MS/MS, prodrugs were separated with Thermo Scientific Accela UPLC system coupled to Accela open autosampler on an Agilent C18 (100×2.1 mm id) UPLC column. The autosampler was temperature controlled and operating at 10° C. […] The column effluent was monitored using TSQ Vantage triple-quadrupole mass spectrometric detector, equipped with an electrospray probe set in the positive ionization mode. […]
(§3) For quantification of compound remaining, disappearance of prodrugs was measured from ratio of peak areas of analyte to IS. Percentage remaining was calculated in the following manner: […]

[7] = Subcutaneous plasma and sciatic nerve pharmacokinetic studies in mice; format: in vivo; conditions: 10 mg/kg equivalent s.q., 10-120 min post dose
Description: Bioanalysis of parent and intact prodrug in plasma and tissues: Prior to extraction, frozen samples were thawed on ice. For plasma, 50 μL of the sample was transferred into siliconized microcentrifuge tubes. For sciatic nerves, the samples were weighed in a 1.7 mL tubes and homogenized in 5× the volume of methanol. The calibration curves were prepared using naïve plasma and sciatic nerves in a concentration range of 50-10000 pmol/g or pmol/mL. Sample preparation involved a single liquid extraction by addition of 300 μL of methanol with internal standard (losartan 200 nM in methanol), followed by vortexing for 30 s and then centrifugation at 10,000×g for 10 min. Supernatant (about 250 μL) was transferred and evaporated to dryness at 40° C. under a gentle stream of nitrogen. The residue was reconstituted with 50 μL of 30% acetonitrile and analysed by LC/MS/MS.
Chromatographic analysis was performed using an Accela™ ultra high-performance system consisting of an analytical pump, and an autosampler coupled with TSQ Vantage mass spectrometer (Thermo Fisher Scientific Inc., Waltham, MA). […] The mobile phase used was composed of 0.1% formic acid in acetonitrile and 0.1% formic acid in H2O with gradient elution, starting with 10% (organic) linearly increasing to 99% up to 2.5 min, maintaining at 99% (2.5-3.5 min) and reequlibrating to 10% by 4.5 min. The total run time for each analyte was 4.5 min. The mass transitions (M−H)− used for Compound 50 were 280.077>175.168, 203.156; and for losartan were 420.895>127.040, 179.108.

[8] = In vitro metabolic stability in mouse plasma; format: in vitro ADME; conditions: 37° C.
Description: as §1, §2, §3

[9] = Stability testing under GCPII enzyme assay conditions; format: physicochemical; conditions: 30 m in aqueous buffer; pH 8.0
Description: Compound 1 and its six prodrugs 7, 12, 17, 23, 25, and 30 were tested for their inhibition potency against GCPII. […] Considering structural data on the compound 1/GCPII complex reported previously (Novakova, et al., J. Med. Chem, 2016) the lack of inhibitory potency of the prodrugs is likely due to the inability of the modified hydroxamate function to chelate active-site zinc ions.

Chain of rhGCPII (Q04609 whole entry): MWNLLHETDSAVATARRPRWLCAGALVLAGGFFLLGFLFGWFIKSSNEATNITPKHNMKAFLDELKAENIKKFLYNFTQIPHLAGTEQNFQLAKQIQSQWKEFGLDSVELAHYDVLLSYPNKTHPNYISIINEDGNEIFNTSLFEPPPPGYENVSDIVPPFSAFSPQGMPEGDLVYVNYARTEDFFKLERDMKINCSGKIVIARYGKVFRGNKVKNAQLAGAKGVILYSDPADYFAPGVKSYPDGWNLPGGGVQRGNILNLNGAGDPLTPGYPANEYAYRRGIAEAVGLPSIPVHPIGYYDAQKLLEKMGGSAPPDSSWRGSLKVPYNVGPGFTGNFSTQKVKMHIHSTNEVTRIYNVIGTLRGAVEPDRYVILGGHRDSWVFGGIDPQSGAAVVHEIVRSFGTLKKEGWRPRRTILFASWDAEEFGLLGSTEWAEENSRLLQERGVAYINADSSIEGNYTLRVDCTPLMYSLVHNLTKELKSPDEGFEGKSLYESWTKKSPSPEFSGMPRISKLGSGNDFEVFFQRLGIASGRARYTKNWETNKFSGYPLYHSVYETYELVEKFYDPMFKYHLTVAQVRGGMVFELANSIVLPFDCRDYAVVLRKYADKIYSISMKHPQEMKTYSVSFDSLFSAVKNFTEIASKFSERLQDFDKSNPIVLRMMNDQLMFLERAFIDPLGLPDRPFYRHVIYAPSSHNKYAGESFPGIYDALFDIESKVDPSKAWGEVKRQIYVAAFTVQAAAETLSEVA

O=C(CCC(Cc1ccc(C(=O)O)cc1)C(=O)O)NO (stereo not drawn) [Compound 1, 4-Carboxy-α-[3-(hydroxyamino)-3-oxopropyl]-benzenepropanoic acid]
stability / prodrug disappearance in mouse plasma [1]: completely stable | distribution to sciatic nerves ([2]; Novakova, et al., 2016): good distribution to sciatic nerves | oral bioavailability [2]: poor oral bioavailability | analgesic effects in the CCI model ([3]; 10 mg/kg/day oral dosing, previously shown): analgesic effects | first day with significantly reduced thermal hyperalgesia ([3]; oral 10 mg/kg/day (Novakova, et al., 2016)): 8 days | IC50 [4]: 0.044 µM

O=C(O)CCC(CP(=O)(O)O)C(=O)O (stereo not drawn) [Compound 2-PMPA, 2-phosphonomethyl pentanedioic acid]
oral bioavailability [2]: negligible oral availability

CC(=O)Oc1ccc(CONC(=O)CCC(Cc2ccc(C(=O)O)cc2)C(=O)O)cc1 (stereo not drawn) [Compound 12, 4-(5-(((4-Acetoxybenzyl)oxy)amino)-2-carboxy-5-oxopentyl)benzoic acid]
response latency to thermal stimulus, sham-operated side ([5]; oral 4.6 mg/kg/day (equivalent of 3 mg/kg/day of 1)): no significant effect on absolute latency; also recorded: did not affect the response latency | antinociceptive effect on thermal hyperalgesia, ligated side ([5]; oral daily, 3 mg/kg dose equivalent of 1 (50), 4.6 mg/kg/day for 12): analgesic efficacy comparable to dose of 10 mg/kg of 1; also recorded: significantly reduced thermal hyperalgesia; also recorded: analgesic efficacy superior to that of oral daily doses of 10 mg/kg of 1; also recorded: efficacious; also recorded: significantly attenuated CCI-induced hyperalgesic state | first day with significantly reduced thermal hyperalgesia ([5]; oral, 3 mg/kg/day equivalent of 1): 4 days | stability / prodrug disappearance in mouse plasma [1]: lost the peak corresponding to 12 | metabolic stability in human plasma [6]: rapidly metabolized | plasma (systemic) levels of active compound 50 after subcutaneous dosing [7]: high systemic levels | sciatic nerve exposure of active compound 50 after subcutaneous dosing [7]: excellent nerve exposure | metabolic stability in mouse plasma [8]: rapidly metabolized

Cc1oc(=O)oc1CONC(=O)CCC(Cc1ccc(C(=O)O)cc1)C(=O)O (stereo not drawn) [Compound 17, 4-(2-Carboxy-5-(((5-methyl-2-oxo-1,3-dioxol-4-yl)methoxy)amino)-5-oxopentyl)benzoic acid]
stability under GCPII enzyme assay conditions [9]: partial hydrolysis to 1 | fold less potent versus 1 in inhibiting GCPII activity ([4]; compared to compound 1): 12 fold | IC50 [4]: 0.54 µM

CCOC(=O)c1ccc(CC(CCC(=O)NOCc2ccc(OC(C)=O)cc2)C(=O)O)cc1 (stereo not drawn) [Compound 23, 5-(((4-Acetoxybenzyl)oxy)amino)-2-(4-(ethoxycarbonyl)benzyl)-5-oxopentanoic acid]
stability / prodrug disappearance in mouse plasma [1]: complete loss of 23

CC(=O)Oc1ccc(CONC(=O)CCC(Cc2ccc(C(=O)OCOC(=O)OC(C)C)cc2)C(=O)O)cc1 (stereo not drawn) [Compound 30, 5-(((4-Acetoxybenzyl)oxy)amino)-2-(4-((((isopropoxycarbonyl)oxy)methoxy)carbonyl)benzyl)-5-oxopentanoic acid]
stability / prodrug disappearance in mouse plasma [1]: completely hydrolyzed | plasma (systemic) levels of active compound 50 after subcutaneous dosing [7]: high systemic levels | sciatic nerve exposure of active compound 50 after subcutaneous dosing [7]: excellent nerve exposure

NCC1(CC(=O)O)CCCCC1 [gabapentin, reference compound]
antinociceptive effect on thermal hyperalgesia, ligated side ([5]; oral 50 mg/kg/day): did not significantly attenuate the hyperalgesic state | antinociceptive effect on thermal hyperalgesia, ligated side ([5]; oral 100 mg/kg/day, 100 mg/kg/day): significantly reversed allodynia; also recorded: significantly attenuated CCI-induced hyperalgesic state
